The values below come from patent publication US6720345B1, “Semicarbazone derivatives and their use as thrombopoietin mimetics” (SmithKline Beecham Corporation, priority 1999, dated 2004).

The experiment concerns the target T1, TPO receptor (Homo sapiens, UniProt P40238).
T1 construct: expressed in transfected cells; host or cells: murine BaF3 cells (TPO-responsive line)
T1 sequence (P40238 26-635): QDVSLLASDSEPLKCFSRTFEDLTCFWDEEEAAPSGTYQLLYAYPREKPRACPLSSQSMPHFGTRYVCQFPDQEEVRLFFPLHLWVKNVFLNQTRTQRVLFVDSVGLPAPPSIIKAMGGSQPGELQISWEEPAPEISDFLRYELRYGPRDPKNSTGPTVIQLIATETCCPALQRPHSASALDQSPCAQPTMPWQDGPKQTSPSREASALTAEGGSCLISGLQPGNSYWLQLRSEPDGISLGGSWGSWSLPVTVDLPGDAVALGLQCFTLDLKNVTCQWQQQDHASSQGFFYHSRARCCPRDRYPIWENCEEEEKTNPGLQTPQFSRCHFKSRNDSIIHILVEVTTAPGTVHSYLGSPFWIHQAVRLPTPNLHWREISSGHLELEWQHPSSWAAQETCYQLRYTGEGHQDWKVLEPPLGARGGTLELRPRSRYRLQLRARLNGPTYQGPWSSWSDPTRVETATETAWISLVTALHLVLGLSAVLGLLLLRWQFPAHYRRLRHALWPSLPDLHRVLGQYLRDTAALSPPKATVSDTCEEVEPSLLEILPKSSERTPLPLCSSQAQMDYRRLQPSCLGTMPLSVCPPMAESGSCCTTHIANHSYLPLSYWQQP
As to the kind of experiment: Luciferase assay in TPO-responsive BaF3 cell line. The experiment is classed as cell-based, murine. The note with it: at a concentration of 10 uM. As to the method:
Compounds of the present invention were tested for potency as mimetics of the TPO receptor in a Luciferase assay such as described in Lamb, et al., Nucleic Acids Research 23: 3283-3289 (1995) and Seidel, et al., Proc. Natl. Acad. Sci., USA 92: 3041-3045 (1995) by substituting a TPO-responsive BaF3 cell line (Vigon et al. Proc. Natl. Acad. Sci. USA 1992, 89, 5640-5644) for the HepG2 cells utilized therein. The murine BaF3 cells express TPO receptors and closely match the pattern of STAT (signal transducers and activators of transcription) activation observed in primary murine and human bone marrow cells in response to TPO.

For `O=C1CSC(=S)N1N=Cc1cc(Br)cc(Br)c1O` [Compound A, 3-[(2-hydroxy-3,5-dibromophen-1-yl)methyleneamino]-2-thioxothiazolidin-4-one], the “activation, % of control (control is the maximal response to TPO)” value was “about 9 % of control”.
